US12404239B2, “Modulators of BCL6 as ligand directed degraders” (Celgene Corporation, priority 2022, dated 2025)

Molecular target: T1, BCL6 (Homo sapiens, UniProt P41182)
T1 construct: HiBiT-tag knocked into endogenous BCL6 locus using CRISPR; endogenous in cells; host or cells: DHL-4_BCL6_HiBiT cells (CRISPR knock-in)
Test: BCL6_HiBiT degradation assay (2 h)
Type: cell-based
Conditions: DHL-4_BCL6_HiBiT cells, read-out: YCon (% remaining maximal effect)
Procedure: A DHL-4 cell line with HiBiT-tag knocked into endogenous BCL6 locus using CRISPR was generated. The DHL-4_BCL6_HiBiT cells were dispensed into 384-well plates (Corning no. 3570) that were pre-spotted with compounds. Compounds were dispensed by an acoustic dispenser (ATS acoustic transfer system from EDC Biosystems) into a 384-well plate in a 10-point dose response curve using 3-fold dilutions starting at 1-10 μM and going down to […]. 25 μL of media (RPMI-1640+10% heat inactivated FBS+1×Pen/Strep) containing 2500 of DHL-4 was dispensed per well. Assay plates were incubated at 37° C. with 5% CO2 for 2 hours. After incubation, 25 μL of the Nano-Glo HiBiT lytic detection working solution (Promega, catalogue no. N3040, Madison, WI) was added to each well and incubated at room temperature for 15-30 min, protected from light. After 30 min, luminescence was read on an Envision or PHERAstar luminescence reader. To determine the EC50 value (the half-maximum effective concentration) and the level of the gradation (Yconstant) of a BCL6 degrader, luminescent signal normalized by DMSO control (Y) and compound concentration (x) was fitted using a four-parameter dose-response model (Y=(A+((B−A)/1+((C/x)^D) in Dotmatics. Fitted value C is the degradation EC50 and the minimum value A is the Y constant.
The degradation of BCL6 at 2 h in DHL-4 results are shown in Table 5, where EC50 is the half maximal effect and Ycon is the % remaining maximal effect.

Row | Percent BCL6 remaining at maximal degradation (Ycon) [%] | SMILES
1 | < 20 | C[C@@H]1CN(c2ncc(Cl)c(Nc3ccc4c(c3)CC(=O)N4C)n2)CC[C@H]1Nc1cc2c(cn1)c(C1CCC(=O)NC1=O)nn2C (stereo partly drawn) [Example 86, 3-(6-(((3R,4R)-1-(5-chloro-4-((1-methyl-2-oxoindolin-5-yl)amino)pyrimidin-2-yl)-3-methylpiperidin-4-yl)amino)-1-methyl-1H-pyrazolo[4,3-c]pyridin-3-yl)piperidine-2,6-dione]
2 | > 60 | CN1C(=O)Cc2cc(Nc3nc(N4CC[C@@H](N(C)c5ccc6c(C7CCC(=O)NC7=O)nn(C)c6c5)[C@H](F)C4)ncc3Cl)ccc21 (stereo partly drawn) [Example 46, 3-[6-[[(3R,4R)-1-[5-Chloro-4-[(1-methyl-2-oxo-indolin-5-yl)amino]pyrimidin-2-yl]-3-fluoro-4-piperidyl]-methyl-amino]-1-methyl-indazol-3-yl]piperidine-2,6-dione]
3 | < 20 | CN1C(=O)Cc2cc(Nc3nc(N(C)C4CCN(c5ccc6c(C7CCC(=O)NC7=O)nn(C)c6c5)C(=O)C4)ncc3Cl)ccc21 (stereo not drawn) [Example 127, 3-(6-(4-((5-chloro-4-((1-methyl-2-oxoindolin-5-yl)amino)pyrimidin-2-yl)(methyl)amino)-2-oxopiperidin-1-yl)-1-methyl-1H-indazol-3-yl)piperidine-2,6-dione]
4 | < 20 | C[C@@H]1CN(c2ncc(Cl)c(Nc3ccc4c(c3)CC(=O)N4C)n2)CC[C@H]1Nc1ccc2c(-n3ccc(=O)[nH]c3=O)nn(C)c2c1 [Example 139, 1-(6-(((3R,4R)-1-(5-chloro-4-((1-methyl-2-oxoindolin-5-yl)amino)pyrimidin-2-yl)-3-methylpiperidin-4-yl)amino)-1-methyl-1H-indazol-3-yl)pyrimidine-2,4(1H,3H)-dione]
5 | < 20 | CNCCN1C(=O)Cc2cc(Nc3nc(N4CC[C@@H](Nc5ccc6c([C@@H]7CCC(=O)NC7=O)nn(C)c6c5)[C@H](C)C4)ncc3Cl)ccc21 (single isomer, unassigned) [Example 106]
6 | < 20 | C[C@@H]1C[C@H](N(C)c2ncc(Cl)c(Nc3ccc4c(c3)CC(=O)N4C)n2)CCN1c1ccc2c(C3CCC(=O)NC3=O)nn(C)c2c1 (stereo partly drawn) [Example 4, 3-(6-((2R,4R)-4-((5-chloro-4-((1-methyl-2-oxoindolin-5-yl)amino)pyrimidin-2-yl)(methyl)amino)-2-methylpiperidin-1-yl)-1-methyl-1H-indazol-3-yl)piperidine-2,6-dione]
7 | > 60 | Cn1nc(C2CCC(=O)NC2=O)c2ccc(C3CCN(c4ncc(Cl)c(Nc5ccc6c(c5)CC(=O)N6)n4)CC3)cc21 (stereo not drawn) [Example 124, 3-[6-[1-[5-chloro-4-[(2-oxoindolin-5-yl)amino]pyrimidin-2-yl]-4-piperidyl]-1-methyl-indazol-3-yl]piperidine-2,6-dione]
8 | > 60 | CN1C(=O)Cc2cc(Nc3nc(N4CCN(c5ccc6c(C7CCC(=O)NC7=O)nn(C)c6c5)C(=O)C4)ncc3Cl)ccc21 (stereo not drawn) [Example 37, 3-(6-(4-(5-chloro-4-((1-methyl-2-oxoindolin-5-yl)amino)pyrimidin-2-yl)-2-oxopiperazin-1-yl)-1-methyl-1H-indazol-3-yl)piperidine-2,6-dione]
9 | 20 to 60 | C[C@@H]1CN(c2ncc(Cl)c(Nc3ccc4c(c3)CC(=O)N4C)n2)C[C@@H](C)N1c1ccc2c([C@H]3CCC(=O)NC3=O)nn(C)c2c1 (single isomer, unassigned) [Example 79]
10 | < 20 | C[C@@H]1CN(c2ncc(C#N)c(Nc3ccc4c(c3)CC(=O)N4C)n2)CC[C@H]1Nc1ccc2c(N3CCC(=O)NC3=O)nn(C)c2c1 [Example 132, 2-((3R,4R)-4-((3-(2,4-dioxotetrahydropyrimidin-1(2H)-yl)-1-methyl-1H-indazol-6-yl)amino)-3-methylpiperidin-1-yl)-4-((1-methyl-2-oxoindolin-5-yl)amino)pyrimidine-5-carbonitrile]
11 | > 60 | C[C@H]1C[C@H](N(C)c2ccc3c([C@@H]4CCC(=O)NC4=O)nn(C)c3c2)CCN1c1ncc(Cl)c(Nc2ccc3c(c2)CC(=O)N3C)n1 (single isomer, unassigned) [Example 88]
12 | < 20 | C[C@H]1CN(c2ccc3c(C4CCC(=O)NC4=O)nn(C)c3c2)C[C@H](C)N1c1ncc(Cl)c(Nc2ccc3c(c2)CC(=O)N3C)n1 (stereo partly drawn) [Example 29, 3-(6-((3S,5S)-4-(5-chloro-4-((1-methyl-2-oxoindolin-5-yl)amino)pyrimidin-2-yl)-3,5-dimethylpiperazin-1-yl)-1-methyl-1H-indazol-3-yl)piperidine-2,6-dione]
13 | < 20 | CN1C(=O)Cc2cc(Nc3nc(N(C)[C@@H]4CCN(c5ccc6c(C7CCC(=O)NC7=O)nn(C)c6c5)C(=O)C4)ncc3Cl)ccc21 (single isomer, unassigned) [Example 129]
14 | < 20 | C[C@@H]1CN(c2ncc(C#N)c(Nc3ccc4c(c3)CC(=O)N4C)n2)CC[C@H]1Nc1ccc2c(C3CCC(=O)NC3=O)nn(C)c2c1 (stereo partly drawn) [Example 113, 2-((3R,4R)-4-((3-(2,6-dioxopiperidin-3-yl)-1-methyl-1H-indazol-6-yl)amino)-3-methylpiperidin-1-yl)-4-((1-methyl-2-oxoindolin-5-yl)amino)pyrimidine-5-carbonitrile]
15 | > 60 | CN1C(=O)Cc2cc(Nc3nc(N4CCC(Nc5ccc6c(N7CCC(=O)NC7=O)nn(C)c6c5)C(F)(F)C4)ncc3Cl)ccc21 (stereo not drawn) [Example 65, 1-(6-((1-(5-chloro-4-((1-methyl-2-oxoindolin-5-yl)amino)pyrimidin-2-yl)-3,3-difluoropiperidin-4-yl)amino)-1-methyl-1H-indazol-3-yl)dihydropyrimidine-2,4(1H,3H)-dione]
16 | > 60 | CN(c1ncc(Cl)c(Nc2ccc3c(c2)N(CCC(C)(C)O)C(=O)C3)n1)C1CCN(c2ccc3c(C4CCC(=O)NC4=O)nn(C)c3c2)CC1 (stereo not drawn) [Example 11, 3-(6-(4-((5-chloro-4-((1-(3-hydroxy-3-methylbutyl)-2-oxoindolin-6-yl)amino)pyrimidin-2-yl)(methyl)amino)piperidin-1-yl)-1-methyl-1H-indazol-3-yl)piperidine-2,6-dione]
17 | > 60 | C[C@H]1C[C@@H](N(C)c2ccc3c(C4CCC(=O)NC4=O)nn(C)c3c2)CCN1c1ncc(Cl)c(Nc2ccc3c(c2)CC(=O)N3C)n1 (stereo partly drawn) [Example 24, 3-(6-(((2S,4S)-1-(5-chloro-4-((1-methyl-2-oxoindolin-5-yl)amino)pyrimidin-2-yl)-2-methylpiperidin-4-yl)(methyl)amino)-1-methyl-1H-indazol-3-yl)piperidine-2,6-dione]
18 | 20 to 60 | CN1C(=O)Cc2cc(Nc3nc(NC4CCN(c5ccc6c(C7CCC(=O)NC7=O)nn(C)c6c5)CC4(F)F)ncc3Cl)ccc21 (stereo not drawn) [Example 68, 3-(6-(4-((5-chloro-4-((1-methyl-2-oxoindolin-5-yl)amino)pyrimidin-2-yl)amino)-3,3-difluoropiperidin-1-yl)-1-methyl-1H-indazol-3-yl)piperidine-2,6-dione]
